One experiment deals with hemagglutinating virus. As to the kind of experiment: 9CFR 113.34 purity test after sanitization of oocysts. Particulars: sanitized E. maxima oocysts. As to the method: (§1) An experiment was performed to investigate the utility of the sporulation medium described in Example 3 as a sanitization reagent. E. maxima oocysts were produced in broilers and purified using a density flotation technique. Oocysts were sporulated for 72 h using 10% citric acid, 0.25% propionic acid, 0.75% hydrogen peroxide, and 1 mL/L Antifoam A. After sporulation, the oocysts were centrifuged and resuspended in sterile-filtered sporulation medium (10% citric acid, 0.25% propionic acid, 0.75% hydrogen peroxide, 1 mL/L Antifoam A) and incubated overnight at room temperature with stirring. After sanitization, buffer exchange was accomplished via diafiltration using 200 mM potassium phosphate, pH 7, followed by PBS without preservatives. The bulk sample was stored in glass bottles approximately one-third full at 4° C. Subsamples of the final product were sent to a commercial testing laboratory for purity tests according to U.S. Department of Agriculture (USDA) guidelines.
(§2) Two experimental batches of E. maxima oocysts were prepared (Run A and Run B). Each batch was purified using sieving and flotation procedures. Each batch was then split and two methods of sanitization were tested (sodium hypochlorite and hydrogen peroxide with citric acid and propionic acid). Samples from each test were subjected to several purity tests including 9CFR tests and two PCR methods for virus detection.

Another experiment deals with salmonella. Kind of experiment: 9CFR 113.30 purity test after sanitization of oocysts. Particulars: sanitized E. maxima oocysts. As to the method: as §1, §2
For experiment [1], the system named is Extraneous agents in master seed. As to the kind of experiment: 9CFR 113.55 purity test after sanitization of oocysts. Particulars: sanitized E. maxima oocysts. The method, then:
as §2

The next experiment deals with avian lymphoid leukosis. Particulars: sanitized E. maxima oocysts.
Experiment [2] relates to extraneous viable bacteria and fungi. As to the kind of experiment: 9CFR 113.27 purity test after sanitization of oocysts. Particulars: sanitized E. maxima oocysts. As to the method: as §1, §2
Experiment [3] deals with Reticuloendothelial Virus. Kind of experiment: PCR virus detection after sanitization of oocysts. Particulars: sanitized E. maxima oocysts. The method, then: as §2
Experiment [4] deals with Chicken Infectious Anemia Virus. As to the kind of experiment: PCR virus detection after sanitization of oocysts. Particulars: sanitized E. maxima oocysts. The method, then: as §2
For another experiment, the system named is mycoplasma. As to the kind of experiment: 9CFR 113.28 purity test after sanitization of oocysts. Particulars: sanitized E. maxima oocysts. As to the method: as §1, §2
For another experiment, the system named is Scopulariopsis brumptii. Kind of experiment: Fungistatic or fungicidal properties of reagents (TSB flasks, then MEA plates). For Growth in TSB Flasks (Day 28): key: −: no growth was observed; +: growth was observed. For Growth on MEA plates (Day 14): key: −: no growth was observed; +: growth was observed. It is filed as cell-based. Particulars: for Growth on MEA plates (Day 14): 1 mL of flask plated on day 28 onto MEA plate, 14 days; for Growth on MEA plates (Day 14) / Growth in TSB Flasks (Day 28): room temperature; for Growth in TSB Flasks (Day 28): TSB flasks inoculated with fungal stock, 28 days; for fungistatic / fungicidal assessment: flask and plate tests taken together. The method, then:
An experiment was conducted to assess the fungistatic or fungicidal properties of the reagents used in the collection and sporulation medium described in Example 3. Initial sterility tests were performed using trypticase soy broth (TSB). A fungal stock was created by suspending fungal scrapings from a Scopulariopsis brumptii stock culture into 25 mL PBS and filtering this material through a coarse Swinney filter (˜100 μm). Two hundred […] of this fungal stock was inoculated into three TSB flasks for treatments (Trt) 2-11.
Treatments evaluated various of the components of the collection/sporulation/sanitization medium described in Example 3, either alone or in combination. Sodium propionate was also tested in addition to propionic acid. Treatments were evaluated at room temperature for 28 days; then, on day 28 of incubation, one mL of each replicate flask for all treatments was plated onto a malt extract agar (MEA) plate with chloramphenicol (50 μg/mL) and penicillin-G (100 U/mL) and incubated at room temperature for 14 days.

The structures appear in SMILES notation. Like-named read-outs stand apart in the source and are kept apart here.

Experimental for avian lymphoid leukosis: E. maxima oocysts were produced in broilers and purified using a density flotation technique. […] After sanitization, buffer exchange was accomplished via diafiltration using 200 mM potassium phosphate, pH 7, followed by PBS without preservatives. The bulk sample was stored in glass bottles approximately one-third full at 4° C. Subsamples of the final product were sent to a commercial testing laboratory for purity tests according to U.S. Department of Agriculture (USDA) guidelines.

Turning to `[Na+].[O-]Cl` [Hypochlorite, sodium hypochlorite], the “9CFR 113.34 Detection of hemagglutinating virus” value in the experiment with hemagglutinating virus (Example 6, Run A) is listed as “Negative”; with hemagglutinating virus (Example 6, Run B), “Negative”. Further, the “9CFR 113.30 Detection of salmonella” value is listed as “Negative” in the experiment with salmonella (Example 6, Run A) and “Negative” with salmonella (Example 6, Run B). Moreover, the “9CFR 113.55 Extraneous agents in master seed” value is “Negative” in [1] (Example 6, Run A) and “Negative” in experiment [1] (Example 6, Run B). Also, the “9CFR 113.31 Detection of avian lymphoid leucosis” value with avian lymphoid leukosis (Example 6, Run A) is “Negative”; in the experiment with avian lymphoid leukosis (Example 6, Run B), “Negative”. For the same compound, the “9CFR 113.27 Detection of extraneous viable bacteria and fungi in live vaccine” value in [2] (Example 6, Run A) is given as “Negative”; in [2] (Example 6, Run B), “Negative”. In addition, the “Reticuloendothelial Virus by PCR” value in experiment [3] (Example 6, Run A) was “Negative”; in experiment [3] (Example 6, Run B), “Negative”. Also, the “Chicken Infectious Anemia Virus by PCR” value is “Negative” in experiment [4] (Example 6, Run A) and “Negative” in experiment [4] (Example 6, Run B). The “9CFR 113.28 Detection of mycoplasma” value is “Negative” in the experiment with mycoplasma (Example 6, Run A) and “Negative” with mycoplasma (Example 6, Run B).
For the compound `OO` [Trt 3, hydrogen peroxide], in the experiment with Scopulariopsis brumptii, the “Growth on MEA plates (Day 14)” value is reported as “−” and the “Growth in TSB Flasks (Day 28)” value was “−”.
For `CCC(=O)O` [Trt 4, propionic acid], in the experiment on Scopulariopsis brumptii, the “Growth on MEA plates (Day 14)” value was “+”, the “Growth in TSB Flasks (Day 28)” value is “−” and the “fungistatic / fungicidal assessment” value is given as “fungistatic”.
With `O=C(O)CC(O)(CC(=O)O)C(=O)O` [Trt 5, citric acid], in the experiment with Scopulariopsis brumptii, the “Growth on MEA plates (Day 14)” value is reported as “−” and the “Growth in TSB Flasks (Day 28)” value is recorded as “−”.
In the case of `CCC(=O)[O-].[Na+]` [Trt 10, sodium propionate], in the experiment on Scopulariopsis brumptii, the “Growth on MEA plates (Day 14)” value is “+” and the “Growth in TSB Flasks (Day 28)” value is recorded as “+”.
As to `CCC(=O)[O-].[Na+]` [sodium propionate], in the experiment with Scopulariopsis brumptii, the “fungistatic / fungicidal assessment” value is “did not inhibit fungal growth”.

The values are drawn from patent US9107865B2, “Methods for producing oocysts” (Zoetis Services LLC, priority 2001, dated 2015).
